We go through four compounds from article doi:10.1101/2024.08.19.608619, “Discovery of potent SARS-CoV-2 nsp3 macrodomain inhibitors uncovers lack of translation to cellular antiviral response” (bioRxiv, 2024).

Series [1] has as its system SARS-CoV-2, isolate USA-WA1/2020. Put plainly: microbe, parasite or virus in culture. Conditions: HeLa-ACE2 SARS-CoV-2 antiviral effect without P-gp inhibitor; for EC50: read-out: ec50; for EC90: read-out: ec90. It counts as cell-based.
In another series the target is T1, 5-HT1A (h) (Homo sapiens, UniProt P08908).
T1 construct: purchased Eurofins Cerep (SafetyScreen44), recognised from the panel format
T1 sequence (P08908 1-422): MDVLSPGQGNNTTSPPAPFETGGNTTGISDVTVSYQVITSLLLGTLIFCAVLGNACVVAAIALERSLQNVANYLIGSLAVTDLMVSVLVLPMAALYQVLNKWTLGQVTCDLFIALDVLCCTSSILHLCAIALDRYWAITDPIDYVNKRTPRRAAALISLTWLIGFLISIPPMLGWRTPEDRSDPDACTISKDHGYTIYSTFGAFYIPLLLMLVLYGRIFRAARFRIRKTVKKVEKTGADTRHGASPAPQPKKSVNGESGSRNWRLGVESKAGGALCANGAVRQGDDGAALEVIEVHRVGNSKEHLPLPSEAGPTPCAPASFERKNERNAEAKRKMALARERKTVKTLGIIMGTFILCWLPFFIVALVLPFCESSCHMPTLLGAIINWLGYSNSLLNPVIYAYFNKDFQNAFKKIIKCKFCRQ
Put plainly: In vitro CEREP profiling, 5-HT1A (h) (agonist radioligand). It counts as binding. Particulars: test compound concentration 10 uM. From the text:
(§1) Supplement media-1.zip/Safety_Panel_Profile.csv, table | column: perc_inhibition

The next series in a line: Protein binding. In kind it is in vitro ADME. From the text:
Supplement media-1.zip/Protein_Binding.csv, table | column: fu; perc_bound; perc_free; perc_recovered

For the next series, the target named is T2, COX2(h) (Homo sapiens, UniProt P35354).
T2 construct: purchased Eurofins Cerep (SafetyScreen44), recognised from the panel format
T2 sequence (P35354 18-604): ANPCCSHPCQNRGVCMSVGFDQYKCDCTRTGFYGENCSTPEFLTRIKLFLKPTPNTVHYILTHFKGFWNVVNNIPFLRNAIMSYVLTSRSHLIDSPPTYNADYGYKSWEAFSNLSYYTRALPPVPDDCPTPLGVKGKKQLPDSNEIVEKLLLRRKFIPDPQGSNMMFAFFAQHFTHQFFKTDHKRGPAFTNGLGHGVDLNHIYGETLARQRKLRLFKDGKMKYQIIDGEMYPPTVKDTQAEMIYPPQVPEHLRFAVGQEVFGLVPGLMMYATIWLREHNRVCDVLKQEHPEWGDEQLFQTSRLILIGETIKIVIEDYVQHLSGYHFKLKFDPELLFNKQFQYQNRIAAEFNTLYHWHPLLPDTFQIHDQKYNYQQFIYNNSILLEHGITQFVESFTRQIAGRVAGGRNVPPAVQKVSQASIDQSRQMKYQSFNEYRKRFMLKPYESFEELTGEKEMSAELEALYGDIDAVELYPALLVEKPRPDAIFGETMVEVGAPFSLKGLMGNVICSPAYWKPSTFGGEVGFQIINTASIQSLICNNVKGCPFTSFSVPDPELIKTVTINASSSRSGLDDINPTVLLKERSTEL
The experiment in a line: In vitro CEREP profiling, COX2(h). Conditions: test compound concentration 10 uM; Enzyme and Cell-based assays. It counts as biochemical.
From the text: as §1

The next series concerns the target T3, mu (MOP) (h) (Homo sapiens, UniProt P35372).
T3 construct: purchased Eurofins Cerep (SafetyScreen44), recognised from the panel format
Put plainly: In vitro CEREP profiling, mu (MOP) (h) (agonist radioligand). It counts as binding. Particulars: test compound concentration 10 uM.
From the text: as §1

Another series concerns the target T4, PDE4D2 (h) (Homo sapiens, UniProt Q08499).
T4 construct: purchased Eurofins Cerep (SafetyScreen44), recognised from the panel format
The experiment in a line: In vitro CEREP profiling, PDE4D2 (h). It counts as biochemical. Conditions: test compound concentration 10 uM; Enzyme and Cell-based assays.
From the text: as §1

The subject of another series is MERS-CoV. The experiment in a line: microbe, parasite or virus in culture. In kind it is cell-based. Conditions: Vero E6/TMPRSS2 MERS-CoV antiviral effect with P-gp inhibitor; for perc_max_measured: maximum measured response of dose series; for perc_min_measured: minimum measured response of dose series; for EC50: read-out: ec50; for EC90: read-out: ec90.
Another series concerns the target T5, A2A (h) (Homo sapiens, UniProt P29274).
T5 construct: purchased Eurofins Cerep (SafetyScreen44), recognised from the panel format
Put plainly: In vitro CEREP profiling, A2A (h) (agonist radioligand). In kind it is binding. Conditions: test compound 10 uM.
From the text: as §1

The target in series [2] is T6, norepinephrine transporter (h) (Homo sapiens, UniProt P23975).
T6 construct: purchased Eurofins Cerep (SafetyScreen44), recognised from the panel format
The experiment in a line: In vitro CEREP profiling, norepinephrine transporter (h) (antagonist radioligand). Conditions: test compound concentration 10 uM. In kind it is binding.
From the text: as §1

The next series addresses T7, dopamine transporter (h) (Homo sapiens, UniProt Q01959).
T7 construct: purchased Eurofins Cerep (SafetyScreen44), recognised from the panel format
The experiment in a line: In vitro CEREP profiling, dopamine transporter (h) (antagonist radioligand). In kind it is binding. Particulars: test compound concentration 10 uM.
From the text: as §1

The target of a further series is T8, Lck kinase (h) (Homo sapiens, UniProt P06239).
T8 construct: purchased Eurofins Cerep (SafetyScreen44), recognised from the panel format
Put plainly: In vitro CEREP profiling, Lck kinase (h). Conditions: test compound concentration 10 uM; Enzyme and Cell-based assays. It counts as biochemical.
From the text: as §1

In the next series the target is T9, beta1 (h) (Homo sapiens, UniProt P08588).
T9 construct: purchased Eurofins Cerep (SafetyScreen44), recognised from the panel format
Put plainly: In vitro CEREP profiling, beta1 (h) (agonist radioligand). It counts as binding. Particulars: test compound 10 uM.
From the text: as §1

Setting [3] is: maximum measured response of dose series.
Where [4] appears, read: minimum measured response of dose series.
The mark [5] stands for this setting: In vitro dog plasma protein binding.
Setting [6] is: In vitro fetal calf serum protein binding.
The mark [7] stands for this setting: In vitro human plasma protein binding.
Where [8] appears, read: In vitro mouse plasma protein binding.
Where [9] appears, read: In vitro rat plasma protein binding.
The mark [10] stands for this setting: Severe acute respiratory syndrome coronavirus 2.

Structures are written as SMILES. “And” between values parts separate entries of the source, which are not always exact repeats. Identical values can stand only once. Like-named read-outs stand apart in the source and are kept apart here.

T4 sequence (Q08499 303-809): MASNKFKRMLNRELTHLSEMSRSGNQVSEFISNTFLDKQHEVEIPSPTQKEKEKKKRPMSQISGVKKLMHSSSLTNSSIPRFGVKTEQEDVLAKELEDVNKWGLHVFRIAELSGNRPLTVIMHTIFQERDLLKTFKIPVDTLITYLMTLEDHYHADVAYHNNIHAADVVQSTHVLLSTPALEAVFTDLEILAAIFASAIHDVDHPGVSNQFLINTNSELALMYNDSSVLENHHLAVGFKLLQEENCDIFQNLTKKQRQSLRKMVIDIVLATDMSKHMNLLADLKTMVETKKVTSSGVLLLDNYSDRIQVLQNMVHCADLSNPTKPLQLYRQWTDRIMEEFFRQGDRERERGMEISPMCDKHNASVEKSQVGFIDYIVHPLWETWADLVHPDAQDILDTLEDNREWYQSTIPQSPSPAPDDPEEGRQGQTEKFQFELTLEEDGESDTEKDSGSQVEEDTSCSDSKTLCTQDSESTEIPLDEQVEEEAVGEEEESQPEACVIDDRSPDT
T5 sequence (P29274 whole entry): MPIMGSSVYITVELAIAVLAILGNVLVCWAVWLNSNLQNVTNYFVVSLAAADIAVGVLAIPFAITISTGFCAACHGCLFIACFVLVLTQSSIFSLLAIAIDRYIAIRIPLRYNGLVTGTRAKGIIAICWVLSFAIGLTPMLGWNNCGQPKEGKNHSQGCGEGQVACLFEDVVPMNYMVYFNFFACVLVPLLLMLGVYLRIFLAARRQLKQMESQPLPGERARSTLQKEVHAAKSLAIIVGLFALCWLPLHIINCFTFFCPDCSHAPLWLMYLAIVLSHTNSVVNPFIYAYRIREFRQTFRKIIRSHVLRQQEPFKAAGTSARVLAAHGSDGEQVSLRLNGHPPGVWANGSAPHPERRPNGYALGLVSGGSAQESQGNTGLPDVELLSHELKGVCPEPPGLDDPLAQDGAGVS
T3 sequence (P35372 whole entry): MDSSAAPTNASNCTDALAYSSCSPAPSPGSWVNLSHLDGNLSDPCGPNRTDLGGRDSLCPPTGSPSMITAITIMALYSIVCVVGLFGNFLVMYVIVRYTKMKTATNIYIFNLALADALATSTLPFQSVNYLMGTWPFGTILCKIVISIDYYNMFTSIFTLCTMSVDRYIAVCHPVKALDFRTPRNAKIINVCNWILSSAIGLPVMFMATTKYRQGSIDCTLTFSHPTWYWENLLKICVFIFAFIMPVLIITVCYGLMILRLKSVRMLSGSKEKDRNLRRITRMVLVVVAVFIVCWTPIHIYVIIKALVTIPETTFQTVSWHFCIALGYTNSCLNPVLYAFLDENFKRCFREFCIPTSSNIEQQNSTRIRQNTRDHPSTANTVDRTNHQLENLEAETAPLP
T9 sequence (P08588 whole entry): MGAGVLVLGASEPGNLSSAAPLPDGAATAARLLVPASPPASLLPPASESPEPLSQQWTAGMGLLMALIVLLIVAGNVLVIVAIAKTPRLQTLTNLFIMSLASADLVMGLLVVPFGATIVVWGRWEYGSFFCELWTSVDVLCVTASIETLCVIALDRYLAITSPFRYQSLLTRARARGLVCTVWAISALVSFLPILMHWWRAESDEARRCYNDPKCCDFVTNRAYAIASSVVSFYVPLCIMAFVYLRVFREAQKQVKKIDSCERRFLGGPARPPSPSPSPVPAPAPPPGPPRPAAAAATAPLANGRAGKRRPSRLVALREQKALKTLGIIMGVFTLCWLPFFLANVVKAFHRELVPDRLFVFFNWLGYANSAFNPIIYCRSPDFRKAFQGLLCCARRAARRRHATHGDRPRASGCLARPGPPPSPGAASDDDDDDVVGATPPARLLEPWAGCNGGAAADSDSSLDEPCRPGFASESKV
T8 sequence (P06239 whole entry): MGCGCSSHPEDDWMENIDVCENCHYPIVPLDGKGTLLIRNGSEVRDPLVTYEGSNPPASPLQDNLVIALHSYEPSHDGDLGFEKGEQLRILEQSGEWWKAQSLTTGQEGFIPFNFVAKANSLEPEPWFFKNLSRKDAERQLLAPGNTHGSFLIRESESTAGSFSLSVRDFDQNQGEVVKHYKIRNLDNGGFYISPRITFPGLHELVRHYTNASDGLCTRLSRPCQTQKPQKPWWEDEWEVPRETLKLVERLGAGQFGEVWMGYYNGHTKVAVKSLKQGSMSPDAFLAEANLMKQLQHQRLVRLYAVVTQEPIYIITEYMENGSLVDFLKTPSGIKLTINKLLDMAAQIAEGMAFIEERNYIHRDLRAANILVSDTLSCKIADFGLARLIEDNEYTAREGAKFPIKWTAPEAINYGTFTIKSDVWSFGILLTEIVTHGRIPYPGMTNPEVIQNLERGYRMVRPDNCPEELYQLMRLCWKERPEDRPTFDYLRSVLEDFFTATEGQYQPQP
T7 sequence (Q01959 whole entry): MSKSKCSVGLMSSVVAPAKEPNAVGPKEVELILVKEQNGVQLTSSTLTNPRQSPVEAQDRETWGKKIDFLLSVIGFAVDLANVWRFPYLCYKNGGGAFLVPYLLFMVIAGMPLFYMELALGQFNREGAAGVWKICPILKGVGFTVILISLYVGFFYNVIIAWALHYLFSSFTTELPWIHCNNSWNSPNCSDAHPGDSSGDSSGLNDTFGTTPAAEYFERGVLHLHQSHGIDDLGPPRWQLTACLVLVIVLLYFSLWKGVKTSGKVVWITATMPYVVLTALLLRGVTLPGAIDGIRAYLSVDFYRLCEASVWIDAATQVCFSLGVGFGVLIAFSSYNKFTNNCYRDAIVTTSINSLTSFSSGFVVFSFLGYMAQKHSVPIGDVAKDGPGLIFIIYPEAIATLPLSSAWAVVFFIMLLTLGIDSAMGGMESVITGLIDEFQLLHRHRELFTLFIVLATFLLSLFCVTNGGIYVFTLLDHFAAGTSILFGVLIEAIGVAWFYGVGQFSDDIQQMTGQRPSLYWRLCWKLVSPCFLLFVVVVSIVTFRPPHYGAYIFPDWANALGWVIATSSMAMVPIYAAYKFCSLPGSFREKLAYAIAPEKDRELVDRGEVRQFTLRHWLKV
T6 sequence (P23975 whole entry): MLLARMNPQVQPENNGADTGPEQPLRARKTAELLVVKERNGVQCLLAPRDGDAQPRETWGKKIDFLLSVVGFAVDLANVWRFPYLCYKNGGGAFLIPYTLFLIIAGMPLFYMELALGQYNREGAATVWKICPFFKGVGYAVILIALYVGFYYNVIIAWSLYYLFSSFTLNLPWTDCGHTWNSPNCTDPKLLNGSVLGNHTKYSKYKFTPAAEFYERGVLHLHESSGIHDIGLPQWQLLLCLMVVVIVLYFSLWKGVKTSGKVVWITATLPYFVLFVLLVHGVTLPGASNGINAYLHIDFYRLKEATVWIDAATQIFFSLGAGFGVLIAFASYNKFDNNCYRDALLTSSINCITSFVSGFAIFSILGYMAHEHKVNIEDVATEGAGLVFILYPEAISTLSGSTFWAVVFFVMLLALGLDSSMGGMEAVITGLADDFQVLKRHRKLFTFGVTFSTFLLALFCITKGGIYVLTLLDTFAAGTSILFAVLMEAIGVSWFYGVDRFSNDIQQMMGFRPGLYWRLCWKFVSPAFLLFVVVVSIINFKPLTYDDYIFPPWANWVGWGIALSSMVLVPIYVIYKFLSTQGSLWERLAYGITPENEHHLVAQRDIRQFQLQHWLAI

For `CC(C)[C@@H](Nc1ncnc2[nH]c(-c3cnn(C)c3C#N)cc12)c1ccc2c(n1)OCCO2` [ASAP-0008418], the perc_max_measured in series [1] (setting [3]) was 143.7% and 101.777%. Besides, the perc_min_measured in series [1] (setting [4]) is 4.604% and 4.949%. In series [1], the EC50 was 5.89 µM and 5.04 µM; the EC90 was 6.44 µM and 10.5 µM.
As to `C[C@H](C(=O)O)[C@@H](NC(=O)c1ncnc2[nH]ccc12)c1ccc(Br)cc1` [ASAP-0014722], the “perc_inhibition (% inhibition of the binding of a ligand specific for each target)” value at 5-HT1A (h) was 2%; at mu (MOP) (h), -10%; on A2A (h) it was -14%; in series [2], -6%; on dopamine transporter (h), 4%; at beta1 (h), -5%. In addition, the perc_max_measured was 104.611% in series [1] (setting [3]); 106.305% and 132.117% in the series with MERS-CoV. Besides, the perc_min_measured was 91.919% in series [1] (minimum measured response); 71.809% in [1] (setting [4]); 63.318% and 92.538% in the series on MERS-CoV. For the same compound, the EC50 in [1] is > 20 µM; in the series with MERS-CoV, > 5 µM. Also, the EC90 was > 20 µM in [1] and > 5 µM in the series with MERS-CoV. The fu worked out at 0.039 in “Protein binding” (setting [5]); 0.043 in “Protein binding” (setting [6]); 0.026 in the series “Protein binding” (setting [7]); 0.111 in the series “Protein binding” (setting [8]); 0.044 in “Protein binding” (setting [9]). For the same compound, the perc_bound in “Protein binding” (setting [5]) was 96.1%; in the series “Protein binding” (setting [6]), 95.7%; in “Protein binding” (setting [7]), 97.4%; in the series “Protein binding” (setting [8]) it was 88.9%; in the series “Protein binding” (setting [9]), 95.6%. The perc_free is on record as 3.94% in “Protein binding” (setting [5]); 4.3% in “Protein binding” (setting [6]); 2.6% in “Protein binding” (setting [7]); 11.1% in “Protein binding” (setting [8]); 4.41% in the series “Protein binding” (setting [9]). The perc_recovered in “Protein binding” (setting [5]) came out at 103.6%; in the series “Protein binding” (setting [6]), 106.3%; in “Protein binding” (setting [7]) it was 99.4%; in the series “Protein binding” (setting [8]), 94.29%; in “Protein binding” (setting [9]), 93.34%. For the same compound, the “perc_inhibition: % inhibition of control enzyme activity, COX2(h)” value on COX2(h) amounted to 7%. The “perc_inhibition: % inhibition of control enzyme activity, PDE4D2 (h)” value on PDE4D2 (h) came to 30%. The “perc_inhibition: % inhibition of control enzyme activity, Lck kinase (h)” value at Lck kinase (h) was determined as 4%.
In turn, `CC(C)C(Nc1ncnc2[nH]ccc12)c1ccc2c(c1)S(=O)(=O)CCC2` (stereo not shown) [ASAP-0008327] yielded a perc_max_measured in series [1] (setting [3]) of 112.988%. Moreover, the perc_min_measured in [1] (setting [4]) was 76.031%. In addition, in series [1] (setting [10]), the EC50 is > 50 µM and the EC90 was > 50 µM.
`COc1ccc([C@H](Cc2nnn[nH]2)NC(=O)c2ncnc3[nH]ccc23)cc1` [ASAP-0015381]: the “perc_inhibition (% inhibition of the binding of a ligand specific for each target)” value is listed as 5% at 5-HT1A (h); -3% at mu (MOP) (h); -13% at A2A (h); -5% in [2]; 7% at dopamine transporter (h); -3% at beta1 (h). The perc_max_measured in [1] (maximum measured response) was 102.013%; in [1] (setting [3]), 116.588%; in the series with MERS-CoV it was 110.958% and 111.344%. Moreover, the perc_min_measured was 88.847% in series [1] (minimum measured response); 75.952% in [1] (setting [4]); 85.891% and 86.764% in the series with MERS-CoV. Besides, the EC50 in [1] is > 20 µM; in the series on MERS-CoV it was > 5 µM. For the same compound, the EC90 in [1] was > 20 µM; in the series on MERS-CoV, > 5 µM. Besides, the fu in “Protein binding” (setting [5]) is 0.106; in “Protein binding” (setting [6]), 0.061; in “Protein binding” (setting [7]), 0.01; in the series “Protein binding” (setting [8]), 0.306; in the series “Protein binding” (setting [9]), 0.047. The perc_bound in the series “Protein binding” (setting [5]) is on record as 89.4%; in “Protein binding” (setting [6]), 93.9%; in “Protein binding” (setting [7]), 99.0%; in the series “Protein binding” (setting [8]) it was 69.4%; in the series “Protein binding” (setting [9]), 95.3%. Also, the perc_free in “Protein binding” (setting [5]) was found to be 10.6%; in “Protein binding” (setting [6]), 6.07%; in the series “Protein binding” (setting [7]), 1.01%; in “Protein binding” (setting [8]) it was 30.6%; in the series “Protein binding” (setting [9]), 4.69%. The perc_recovered in “Protein binding” (setting [5]) was found to be 90.64%; in “Protein binding” (setting [6]), 101.6%; in “Protein binding” (setting [7]), 102.0%; in the series “Protein binding” (setting [8]), 84.29%; in the series “Protein binding” (setting [9]), 100.2%. For the same compound, the “perc_inhibition: % inhibition of control enzyme activity, COX2(h)” value at COX2(h) is on record as -1%. Moreover, the “perc_inhibition: % inhibition of control enzyme activity, PDE4D2 (h)” value on PDE4D2 (h) was 41%. Also, at Lck kinase (h), the “perc_inhibition: % inhibition of control enzyme activity, Lck kinase (h)” value was found to be 4%.
